The nature of data set [1]: Biopharmaceutical properties of SMS: first pass effect and excretion. The data set is classed as in vivo. The following applies: rat.
Data set [2] in a line: Stability of SMS in gastric juices. Type of data set: in vitro ADME.

Like-named read-outs stand apart in the source and are kept apart here.

Consider `C[C@@H](O)[C@@H]1NC(=O)[C@H](CCCCN)NC(=O)[C@@H](Cc2c[nH]c3ccccc23)NC(=O)[C@H](Cc2ccccc2)NC(=O)[C@@H](NC(=O)[C@H](N)Cc2ccccc2)CSSC[C@@H](C(=O)N[C@H](CO)[C@@H](C)O)NC1=O` [SMS, octreotide], for which the dose excreted in data set [1] (bile, read-out: excreted as the unchanged drug in the bile) was roughly 80%; in data set [1] (urine, read-out: excreted as the unchanged drug in the urine) it was roughly 20%. The “stability in gastric juices” value in data set [2] is recorded as “extremely stable”.
